This assay concerns nude mice, LX-1 lung xenograft intrarenal, tumor weight T/C. The experiment in a line: NCI In Vivo Anticancer Drug Screen. Data for tumor model Human Lung LX-1 Xenograft (intrarenal inoculation) in NU/NU Swiss (nude) mice. The conditions noted are these: endpoint: mean tumor weight change, higher = larger tumour. The procedure, abridged:
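In vivo, transplantable tumor; compound vs vehicle arms; tumor size measured; value = T/C.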

The mark [1] stands for this setting: dose: 50.0 mg/kg/injection, schedule: Q01DX010 (sc), vehicle: saline with Tween-80.
Setting [2] is: dose: 400.0 mg/kg/injection, schedule: Q01DX010 (sc), vehicle: saline with Tween-80.
Setting [3] is: dose: 12.5 mg/kg/injection, schedule: Q01DX010 (sc), vehicle: saline.
Where [4] appears, read: dose: 2.5 mg/kg/injection, schedule: Q04DX003 (sc), vehicle: saline with Tween-80.
The mark [5] stands for this setting: dose: 5.0 mg/kg/injection, schedule: Q04DX003 (sc), vehicle: saline with Tween-80.
Where [6] appears, read: dose: 300.0 mg/kg/injection, schedule: Q04DX003 (sc), vehicle: Klucel (hydroxypropylcellulose) (HPC).
[7] abbreviates: dose: 600.0 mg/kg/injection, schedule: Q04DX003 (sc), vehicle: Klucel (hydroxypropylcellulose) (HPC).
The mark [8] stands for this setting: dose: 1200.0 mg/kg/injection, schedule: Q04DX003 (sc), vehicle: Klucel (hydroxypropylcellulose) (HPC).
[9] abbreviates: dose: 100.0 mg/kg/injection, schedule: Q01DX010 (sc), vehicle: saline with Tween-80.
Setting [10] is: dose: 200.0 mg/kg/injection, schedule: Q01DX010 (sc), vehicle: saline with Tween-80.
The mark [11] stands for this setting: dose: 400.0 mg/kg/injection, schedule: Q04DX003 (sc), vehicle: saline with Tween-80.
[12] abbreviates: dose: 200.0 mg/kg/injection, schedule: Q01DX010 (sc), vehicle: saline.
Where [13] appears, read: dose: 150.0 mg/kg/injection, schedule: Q04DX003 (sc), vehicle: Klucel (hydroxypropylcellulose) (HPC).
Where [14] appears, read: dose: 600.0 mg/kg/injection, schedule: Q04DX003 (sc), vehicle: saline with Tween-80.
The mark [15] stands for this setting: dose: 25.0 mg/kg/injection, schedule: Q01DX010 (sc), vehicle: saline.
Where [16] appears, read: dose: 50.0 mg/kg/injection, schedule: Q01DX010 (sc), vehicle: saline.
[17] abbreviates: dose: 100.0 mg/kg/injection, schedule: Q01DX010 (sc), vehicle: saline.

“And” between values parts separate entries of the source, which are not always exact repeats. Equal values may be shown once. Inconclusive results are not listed.

For `CN(C)CCCNc1c2ccccc2nc2cccc([N+](=O)[O-])c12`, the T/C runs as follows: (dose: 0.37 mg/kg/injection, schedule: Q04DX003 (sc), vehicle: saline) 117 % of control; (dose: 0.75 mg/kg/injection, schedule: Q04DX003 (sc), vehicle: saline) 100 % of control; (dose: 1.5 mg/kg/injection, schedule: Q04DX003 (sc), vehicle: saline) 95 % of control.

For the molecule `ClCC[N+]12CC[N+](CCCl)(CC1)C2`, the T/C under setting [1] is 42 % of control and 56 % of control; the T/C under setting [2] is 24 % of control; the T/C (dose: 600.0 mg/kg/injection, schedule: Q04DX003 (sc), vehicle: water) was 54 % of control.

With `Nc1nncs1`, under setting [3], the T/C was 104 % of control.

For the molecule `CC1=CC2C(O)(CC(CO)=CC3C4C(C)(C)C4(OC(=O)c4ccccc4)C(OC(=O)c4ccccc4)C(C)C32O)C1=O` (stereo not drawn), the T/C is, setting by setting: (dose: 1.25 mg/kg/injection, schedule: Q04DX003 (sc), vehicle: saline with Tween-80) 77 % of control; under setting [4], 73 % of control; under setting [5], 76 % of control; (dose: 10.0 mg/kg/injection, schedule: Q04DX003 (sc), vehicle: saline with Tween-80) 43 % of control.

Consider `C[C@]12CC[C@@H]3c4ccc(O)cc4CC[C@H]3[C@@H]1CC[C@@H]2O`, for which the T/C is 120 % of control under setting [6]; 101 % of control under setting [7]; 103 % of control under setting [8]; 53 % of control (dose: 2400.0 mg/kg/injection, schedule: Q04DX003 (sc), vehicle: Klucel (hydroxypropylcellulose) (HPC)).

Turning to `CC1(C)CC1(Br)Br`, the T/C reads like this: under setting [9], 160 % of control; under setting [10], 76 % of control and 77 % of control; under setting [2], 58 % of control.

For the molecule `[Cl][Pt+2][Cl].[NH-]C1CCC1.[NH2-]`, under “dose: 12.5 mg/kg/injection, schedule: Q04DX003 (sc), vehicle: suspension in saline”, the T/C is 57 % of control.

Take `CN(Cc1cnc2nc(N)nc(N)c2n1)c1ccc(C(=O)N[C@@H](CCC(=O)O)C(=O)O)cc1`: the T/C is, setting by setting: (dose: 0.5 mg/kg/injection, schedule: Q01DX010 (sc), vehicle: sodium bicarbonate) 74 % of control; (dose: 1.0 mg/kg/injection, schedule: Q01DX010 (sc), vehicle: sodium bicarbonate) 87 % of control; (dose: 2.0 mg/kg/injection, schedule: Q01DX010 (sc), vehicle: sodium bicarbonate) 18 % of control.

With `BrC[P+](CBr)(CBr)CBr`, under setting [11], the T/C was 156 % of control.

On to `Nc1n[nH]c(N)n1`, for which the T/C under setting [12] was 109 % of control; the T/C (dose: 400.0 mg/kg/injection, schedule: Q01DX010 (sc), vehicle: saline) was 106 % of control; the T/C (dose: 800.0 mg/kg/injection, schedule: Q01DX010 (sc), vehicle: saline) was 84 % of control.

Regarding `C[CH2][Sn]([CH2]C)([O]S(C)(=O)=O)[O]S(C)(=O)=O`, the T/C was 107 % of control (dose: 3.13 mg/kg/injection, schedule: Q04DX003 (sc), vehicle: saline with Tween-80); 109 % of control (dose: 6.25 mg/kg/injection, schedule: Q04DX003 (sc), vehicle: saline with Tween-80); 102 % of control (dose: 12.5 mg/kg/injection, schedule: Q04DX003 (sc), vehicle: saline with Tween-80); 99 % of control (dose: 25.0 mg/kg/injection, schedule: Q04DX003 (sc), vehicle: saline with Tween-80).

Turning to `O=C1N[C@@H]2C(=C[C@H](O)[C@@H](O)[C@H]2O)c2cc3c(c(O)c21)OCO3`, the T/C reads like this: under setting [4], 97 % of control; under setting [5], 109 % of control.

Regarding `CC1(C)CC(=O)C(CSC(=O)c2ccccc2)C(=O)C1`, the T/C by setting is: under setting [13], 102 % of control; under setting [6], 119 % of control.

As to `CC1(C)OC1CS(=O)c1ccccc1` (stereo not drawn), the T/C is, setting by setting: under setting [14], 121 % of control; (dose: 1200.0 mg/kg/injection, schedule: Q04DX003 (sc), vehicle: saline with Tween-80) 89 % of control.

Take `CCCC(=O)Oc1ccc(/C=N/NC(N)=S)nc1`: the T/C was 91 % of control under setting [1], 110 % of control under setting [9], 40 % of control under setting [10] and 15 % of control under setting [2].

On to `Cc1nc(N)nc(N)c1-c1ccc(Cl)c(Cl)c1`, for which the T/C was 85 % of control (dose: 0.16 mg/kg/injection, schedule: Q01DX010 (sc), vehicle: saline); 111 % of control (dose: 0.32 mg/kg/injection, schedule: Q01DX010 (sc), vehicle: saline); 115 % of control (dose: 0.63 mg/kg/injection, schedule: Q01DX010 (sc), vehicle: saline); 106 % of control (dose: 1.25 mg/kg/injection, schedule: Q01DX010 (sc), vehicle: saline).

As to `ClC1=C(Cl)C(Cl)=C(Cl)C1=Cc1ccccc1`, the T/C was 96 % of control (dose: 50.0 mg/kg/injection, schedule: Q04DX003 (sc), vehicle: saline with Tween-80); 91 % of control (dose: 200.0 mg/kg/injection, schedule: Q04DX003 (sc), vehicle: saline with Tween-80); 105 % of control under setting [11].

Take `O=c1cc(CCl)[nH]nc1CCl`: the T/C runs as follows: (dose: 6.25 mg/kg/injection, schedule: Q01DX010 (sc), vehicle: saline with Tween-80) 92 % of control; (dose: 12.5 mg/kg/injection, schedule: Q01DX010 (sc), vehicle: saline with Tween-80) 55 % of control; (dose: 25.0 mg/kg/injection, schedule: Q01DX010 (sc), vehicle: saline with Tween-80) 49 % of control; under setting [1], 106 % of control.

`Oc1ccccc1C=NCCC[N-]CCCN=Cc1ccccc1O.[Co]`: the T/C was 124 % of control (dose: 50.0 mg/kg/injection, schedule: Q01DX010 (sc), vehicle: suspension in saline) and 79 % of control (dose: 100.0 mg/kg/injection, schedule: Q01DX010 (sc), vehicle: suspension in saline).

For the molecule `O=C1C=C(C2OC(CO)C(O)C2O)C(=O)N1` (stereo not drawn), the T/C was 37 % of control (dose: 6.25 mg/kg/injection, schedule: Q01DX010 (sc), vehicle: saline); 46 % of control under setting [3]; 66 % of control under setting [15].

Turning to `COC(=O)Nc1ccc(Cc2ccc(NC(=O)OC)cc2)cc1`, for the setting “dose: 800.0 mg/kg/injection, schedule: Q01DX010 (sc), vehicle: saline with Tween-80”, the T/C was 68 % of control.

In the case of `CC1=C[S+](c2ccccc2)c2cccc3cc4ccccc4c1c23` (stereo not drawn), the T/C (dose: 2.0 mg/kg/injection, schedule: Q04DX003 (sc), vehicle: saline with Tween-80) was 102 % of control.

With `CC(/C=N/N=C(N)N)=N\N=C(N)N`, the T/C by setting is: (dose: 12.5 mg/kg/injection, schedule: Q01DX010 (sc), vehicle: water) 81 % of control; (dose: 25.0 mg/kg/injection, schedule: Q01DX010 (sc), vehicle: water) 78 % of control; (dose: 100.0 mg/kg/injection, schedule: Q01DX010 (sc), vehicle: water) 58 % of control.

For `C=CS(=O)(=O)c1ccccc1`, the T/C reads like this: under setting [15], 57 % of control; under setting [16], 65 % of control; under setting [17], 29 % of control.

With `c1cc2n(n1)CCN2`, the T/C under setting [16] is 90 % of control and 233 % of control; the T/C under setting [17] was 117 % of control and 124 % of control; the T/C under setting [12] was 35 % of control; the T/C (dose: 333.33 mg/kg/injection, schedule: Q04DX003 (ip), vehicle: saline) was 67 % of control.

As for `CCCCCCCCCCCCCCCCCC(=O)Nc1ccn(C2OC(CO)C(O)C2O)c(=O)n1` (stereo not drawn), the T/C (dose: 75.0 mg/kg/injection, schedule: Q04DX003 (sc), vehicle: saline with Tween-80) is 115 % of control; the T/C (dose: 150.0 mg/kg/injection, schedule: Q04DX003 (sc), vehicle: saline with Tween-80) was 41 % of control; the T/C (dose: 300.0 mg/kg/injection, schedule: Q04DX003 (sc), vehicle: saline with Tween-80) is 38 % of control; the T/C under setting [14] is 30 % of control.

Turning to `O=c1nc(-c2ccco2)sc(=O)[nH]1`, the T/C under setting [13] is 90 % of control, the T/C under setting [6] was 68 % of control, the T/C under setting [7] was 53 % of control and the T/C under setting [8] is 38 % of control.

`O=c1s[se]c2ccccc12`: the T/C reads like this: (dose: 75.0 mg/kg/injection, schedule: Q04DX003 (sc), vehicle: Klucel (hydroxypropylcellulose) (HPC)) 66 % of control; under setting [13], 59 % of control.

The record behind these values is PubChem BioAssay AID264 (DTP/NCI, 2004).
